Measured values as given in ChEMBL document CHEMBL5042524, “Discovery of Novel Histone Deacetylase 6 (HDAC6) Inhibitors with Enhanced Antitumor Immunity of Anti-PD-L1 Immunotherapy in Melanoma” (J Med Chem, 2022).
Values after ≈ are worked out from the molar mass of the structure shown.

What was measured:
[1] = Antiproliferative activity against human YCC3/7 cells assessed as cell growth inhibition; assay type: functional, cell-based
B16-F10 [2] = assay: Antitumour activity against mouse B16-F10 cells allografted in C57BL/6 mouse model assessed as increase in acetylated alpha tubulin expression level in tumor at 50 mg/kg, ip measured after 14 days by […] based microscopic analysis (Rvb =1.77%); assay type: functional; settings: time 14 day
[3] = Cytotoxicity against human Jurkat cells assessed as reduction in cell viability incubated for 72 hrs by CCK-8 assay
Histone deacetylase 1 = Histone deacetylase 1 (Homo sapiens, UniProt Q13547); assay: Inhibition of recombinant human HDAC1 expressed in baculovirus expression system using Ac-Leu-Gly-Lys (Ac)-AMC as substrate preincubated for 5 mins followed by substrate addition and measured after 30 mins by fluorescence microtiter plate reader assay
Histone deacetylase 8 = biological target: T1, Histone deacetylase 8 (Homo sapiens, UniProt Q9BY41); assay: Inhibition of full length recombinant human C-terminal His tagged HDAC8 expressed in baculovirus infected Sf9 insect cells using Ac-Leu-GlyLys (Tfa)-AMC as substrate preincubated for 5 mins followed by substrate addition and measured after 30 mins by fluorescence microtiter plate reader assay
T1 sequence (Q9BY41 whole entry): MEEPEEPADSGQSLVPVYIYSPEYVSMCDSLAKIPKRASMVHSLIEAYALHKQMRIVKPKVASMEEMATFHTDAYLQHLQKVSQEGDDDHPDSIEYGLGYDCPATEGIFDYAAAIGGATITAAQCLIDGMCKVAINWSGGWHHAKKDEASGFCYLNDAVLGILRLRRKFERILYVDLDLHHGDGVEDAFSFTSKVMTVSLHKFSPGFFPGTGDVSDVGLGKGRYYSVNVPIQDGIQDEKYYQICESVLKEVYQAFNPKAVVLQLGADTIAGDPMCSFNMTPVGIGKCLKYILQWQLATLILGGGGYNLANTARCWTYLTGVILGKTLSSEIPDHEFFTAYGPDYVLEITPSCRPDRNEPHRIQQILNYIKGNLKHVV

[4] = Aqueous solubility of the compound incubated for 24 hrs by HPLC based shake-flask method; assay type: physicochemical; settings: buffer
[5] = Toxicity in C57BL/6 mouse allografted with B16-F10 cells assessed as body weight loss at 50 mg/kg, ip administered daily for 14 days; assay type: organism-based; settings: in vivo, 336 h, time 14 day
HCT-116 = assay: cells; assay type: functional, cell-based; settings: Homo sapiens, HCT-116, 48 h
Description: Antiproliferative activity against human HCT-116 cells assessed as inhibition of cell proliferation measured after 48 hrs by MTT assay

Histone deacetylase 3 = Histone deacetylase 3 (Homo sapiens, UniProt O15379); assay: Inhibition of recombinant human His-tagged HDAC3 expressed in baculovirus insect cells using Ac-Leu-Gly-Lys (Ac)-AMC as substrate preincubated for 5 mins followed by substrate addition and measured after 30 mins by fluorescence microtiter plate reader assay
B16-F10 [6] = assay: Antitumor activity against mouse B16-F10 cells allografted in C57BL/6 mouse assessed as tumor growth inhibition at 50 mg/kg, ip administered daily for 14 days by caliper method (Rvb= 63%); assay type: functional; settings: 336 h, time 14 day, read-out: TGI
[7] = Antiproliferative activity against human YCC-11 cells assessed as cell growth inhibition; assay type: functional, cell-based
B16-F10 [8] = assay: cells; assay type: functional, cell-based; settings: Mus musculus, B16-F10, 48 h
Description: Antiproliferative activity against mouse B16-F10 cells assessed as inhibition of cell proliferation measured after 48 hrs by MTT assay

MCF7 = assay: cells; assay type: functional, cell-based; settings: Homo sapiens, MCF7, 48 h
Description: Antiproliferative activity against human MCF7 cells assessed as inhibition of cell proliferation measured after 48 hrs by MTT assay

A549 = assay: cells; assay type: functional, cell-based; settings: Homo sapiens, A549, 48 h
Description: Antiproliferative activity against human A549 cells assessed as inhibition of cell proliferation measured after 48 hrs by MTT assay

B16-F10 [9] = assay: Potentiation of antitumor activity against mouse B16-F10 cells allografted in C57BL/6 mouse model assessed as decrease in PD-L1 expression level in presence of 2-(5-chloro-2-(3-cyanobenzyloxy)-4-((2-methylbiphenyl-3-yl)methoxy)benzylamino)-2-methylpropanoic acid by Western blot analysis relative to control; assay type: functional; set-up: scale not given: the % may be the effect or the level left
B16-F10 [10] = assay: Antitumour activity against mouse B16-F10 cells allografted in C57BL/6 mouse model assessed as increase in CD3 positive/CD4 positive cells in tumor at 10 mg/kg, ip administered for 14 days by flow cytometry analysis (Rvb= 8.73%); assay type: functional; settings: time 14 day
B16-F10 [11] = assay: Antitumour activity against mouse B16-F10 cells allografted in C57BL/6 mouse model assessed as decrease in PD-L1 expression level by Western blot analysis relative to control; assay type: functional; set-up: scale not given: the % may be the effect or the level left
[12] = Toxicity in C57BL/6 mouse allografted with B16-F10 cells assessed as body weight loss at 10 mg/kg, ip administered daily for 14 days; assay type: organism-based; settings: in vivo, 336 h, time 14 day
B16-F10 [13] = assay: Antitumour activity against mouse B16-F10 cells allografted in C57BL/6 mouse model assessed as increase in CD3 positive/CD8 positive cells in tumor at 10 mg/kg, ip administered for 14 days by flow cytometry analysis (Rvb= 6.65%); assay type: functional; settings: time 14 day

Histone deacetylase 3, sequence (O15379 whole entry): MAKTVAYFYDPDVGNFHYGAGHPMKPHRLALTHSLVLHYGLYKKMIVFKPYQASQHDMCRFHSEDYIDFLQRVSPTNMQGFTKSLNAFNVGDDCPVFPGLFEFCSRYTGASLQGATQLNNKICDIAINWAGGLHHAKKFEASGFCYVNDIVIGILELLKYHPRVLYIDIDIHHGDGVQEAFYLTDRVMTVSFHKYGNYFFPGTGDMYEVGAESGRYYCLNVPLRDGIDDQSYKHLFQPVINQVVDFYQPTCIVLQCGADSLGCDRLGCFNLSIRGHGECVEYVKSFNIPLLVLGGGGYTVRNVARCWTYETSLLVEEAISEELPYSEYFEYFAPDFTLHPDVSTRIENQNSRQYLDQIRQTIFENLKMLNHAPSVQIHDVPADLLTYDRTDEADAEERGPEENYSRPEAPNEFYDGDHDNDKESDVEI
Histone deacetylase 1, sequence (Q13547 whole entry): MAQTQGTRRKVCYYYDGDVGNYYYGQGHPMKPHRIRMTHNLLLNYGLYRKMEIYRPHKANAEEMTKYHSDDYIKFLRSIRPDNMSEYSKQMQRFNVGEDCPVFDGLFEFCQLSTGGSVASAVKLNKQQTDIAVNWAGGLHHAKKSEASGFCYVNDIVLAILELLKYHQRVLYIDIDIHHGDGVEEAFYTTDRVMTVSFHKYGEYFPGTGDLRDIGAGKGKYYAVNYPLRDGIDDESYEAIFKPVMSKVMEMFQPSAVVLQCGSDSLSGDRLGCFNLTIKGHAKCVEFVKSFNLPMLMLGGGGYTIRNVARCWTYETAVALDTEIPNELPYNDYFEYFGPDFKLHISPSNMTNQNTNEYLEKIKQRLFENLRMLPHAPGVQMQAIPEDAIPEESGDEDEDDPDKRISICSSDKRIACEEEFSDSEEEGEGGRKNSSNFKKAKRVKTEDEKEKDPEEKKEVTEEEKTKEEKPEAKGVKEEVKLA

Row | Structure (SMILES) | IC50 [1] | Activity (B16-F10 [2]) | IC50 at 72 h [3] | IC50 (Histone deacetylase 1) | IC50 (Histone deacetylase 8) | solubility thermodynamic at 24 h [4] | Activity [5] | IC50 (HCT-116) | IC50 (Histone deacetylase 3) | inhibition in vivo at 50 mg/kg (B16-F10 [6]) | IC50 [7] | IC50 (B16-F10 [8]) | IC50 (MCF7) | IC50 (A549) | Activity (B16-F10 [9]) | Activity (B16-F10 [10]) | Activity (B16-F10 [11]) | Activity [12] | Activity (B16-F10 [13])
1 | CC(C)(C)OC(=O)Nc1ccc(-c2cc(C(=O)NCCCCCCC(=O)NO)no2)cc1 | 6250 nM | 37.9% | 610 nM | 260 nM | 6210 nM | 16.1 µg/mL (≈ 36 µM) | Non-Toxic | 1470 nM | 760 nM | 52% | 4080 nM | 9410 nM | 2820 nM | > 10000 nM |  |  |  |  | 
2 | Cc1c(COc2cc(OCc3cccc(C#N)c3)c(CNC(C)(C)C(=O)O)cc2Cl)cccc1-c1ccccc1 |  |  |  |  |  |  |  |  |  |  |  |  |  |  | 70% | 15.4% | 45% | Non-Toxic | 11.2%
